Assay results taken from patent EP3383875B1, “3-PYRIMIDINYL PYRROLO [2,3-B] PYRIDINE AS ANTICANCER AGENTS AND THE PROCESS FOR THE PREPARATION THEREOF” (Council Of Scientific & Industrial Research, priority 2015, dated 2017).
Where two headings read alike, the source gives them in different places.

Experiments:
CDK-2/cyclin A = CDK-2/cyclin A (Homo sapiens, UniProt P24941); experiment: CDK inhibition assay, CDK-2/cyclin A against Histone HI, 33P-ATP; assay type: biochemical; conditions: at 500 nM
Protocol: Compounds were evaluated for their ability to inhibit CDK2 and CDK9 as given below.
CDK-2/cyclin A (5-20 mU diluted in 50 mM Hepes pH 7.5, 1 mM DTT, 0.02% Brij35, 100 mM NaCl) was assayed against Histone HI in a final volume of 25.5 µl containing 50 mM Hepes pH7.5, 1 mM DTT, 0.02% Brij35, 100 mM NaCl, Histone HI (1 mg/ml), 10 mM magnesium acetate and 0.02 mM [33P-g-ATP](500-1000 cpm/pmole) and incubated for 30 min at room temperature. Assays were stopped by addition of 5 µl of 0.5 M (3%) orthophosphoric acid and then harvested onto P81 Unifilter plates with a wash buffer of 50 mM orthophosphoric acid.

CDK-9/Cyclin T1 = CDK-9/Cyclin T1 (Homo sapiens, UniProt P50750); experiment: CDK inhibition assay, CDK-9/Cyclin T1 against substrate peptide, 33P-ATP; assay type: biochemical; conditions: at 500 nM
Protocol: (50-1000 cpm/pmole) and incubated for 30 min at room temperature. Assays were stopped by addition of 5 µl of 0.5 M (3%) orthophosphoric acid and then harvested onto P81 Unifilter plates with a wash buffer of 50 mM orthophosphoric acid.

[1] = Table-6, read-out: In vitro CDK2 % of inhibition
[2] = read-out: inhibition against CDK2
[3] = Table-6, read-out: In vitro CDK9 % of inhibition
[4] = read-out: inhibition against CDK9
[5] = Table-7, read-out: In vitro CDK2 % of inhibition
[6] = Table-7, read-out: In vitro CDK9 % of inhibition

Measured: inhibition at 0.5 µM

CDK-9/Cyclin T1, sequence (P50750 whole entry): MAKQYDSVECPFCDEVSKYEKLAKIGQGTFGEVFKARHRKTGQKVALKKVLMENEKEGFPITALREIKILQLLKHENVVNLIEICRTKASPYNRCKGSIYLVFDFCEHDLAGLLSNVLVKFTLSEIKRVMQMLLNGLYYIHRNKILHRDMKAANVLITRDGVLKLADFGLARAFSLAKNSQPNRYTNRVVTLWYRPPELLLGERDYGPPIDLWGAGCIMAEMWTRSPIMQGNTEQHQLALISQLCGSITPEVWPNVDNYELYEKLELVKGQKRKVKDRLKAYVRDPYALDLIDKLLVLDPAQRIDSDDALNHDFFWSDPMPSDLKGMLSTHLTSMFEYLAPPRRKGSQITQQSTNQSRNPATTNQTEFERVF
CDK-9/Cyclin T1, sequence (O60563 whole entry partner): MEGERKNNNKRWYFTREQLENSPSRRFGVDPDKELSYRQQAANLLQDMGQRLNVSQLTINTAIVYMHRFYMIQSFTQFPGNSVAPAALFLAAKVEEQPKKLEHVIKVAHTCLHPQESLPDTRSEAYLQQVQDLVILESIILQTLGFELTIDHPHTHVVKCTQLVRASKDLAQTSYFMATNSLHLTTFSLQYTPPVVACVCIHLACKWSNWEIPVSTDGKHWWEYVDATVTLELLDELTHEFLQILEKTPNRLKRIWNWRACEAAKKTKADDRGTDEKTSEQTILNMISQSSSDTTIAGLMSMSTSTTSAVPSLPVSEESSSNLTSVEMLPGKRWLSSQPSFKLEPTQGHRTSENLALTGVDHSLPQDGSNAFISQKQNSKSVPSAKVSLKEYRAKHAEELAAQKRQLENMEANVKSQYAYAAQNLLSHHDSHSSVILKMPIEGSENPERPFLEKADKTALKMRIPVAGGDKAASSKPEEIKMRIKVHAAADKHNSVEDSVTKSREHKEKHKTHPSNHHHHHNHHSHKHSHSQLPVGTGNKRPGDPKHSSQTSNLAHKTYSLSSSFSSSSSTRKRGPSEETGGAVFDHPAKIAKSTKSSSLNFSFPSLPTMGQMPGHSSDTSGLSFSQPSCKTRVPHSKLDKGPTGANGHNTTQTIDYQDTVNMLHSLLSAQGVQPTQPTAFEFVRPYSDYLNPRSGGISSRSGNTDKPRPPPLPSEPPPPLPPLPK

c1ccc2sc(-c3cnc4[nH]cc(-c5ccnc(NC6CC6)n5)c4c3)cc2c1 [1A18, 4-(5-(benzo[b]thiophen-2-yl)-1H-pyrrolo[2,3-b]pyridin-3-yl)-N-cyclopropylpyrimidin-2-amine]
> 70%: CDK-2/cyclin A; [1] | CDK-2/cyclin A; [2] | CDK-9/Cyclin T1; [3] | CDK-9/Cyclin T1; [4]

FC(F)(F)c1cccc(-c2cnc3[nH]cc(-c4ccnc(NC5CCCC5)n4)c3c2)c1 [1A24, N-cyclopentyl-4-(5-(3-(trifluoromethyl)phenyl)-1H-pyrrolo[2,3-b]pyridin-3-yl)pyrimidin-2-amine]
> 50%: CDK-2/cyclin A; [1] | CDK-2/cyclin A; [2] | CDK-9/Cyclin T1; [3] | CDK-9/Cyclin T1; [4]

c1ccc2c(-c3cnc4[nH]cc(-c5ccnc(NC6CCCC6)n5)c4c3)nccc2c1 [1A40, N-cyclopentyl-4-(5-(isoquinolin-1-yl)-1H-pyrrolo[2,3-b]pyridin-3-yl)pyrimidin-2-amine]
> 50%: CDK-2/cyclin A; [1] | CDK-2/cyclin A; [2] | CDK-9/Cyclin T1; [3] | CDK-9/Cyclin T1; [4]

FC(F)(F)Oc1ccc(-c2cnc3[nH]cc(-c4ccnc(NC5CC5)n4)c3c2)cc1 [1A3, N-cyclopropyl-4-(5-(4-(trifluoromethoxy)phenyl)-1H-pyrrolo[2,3-b]pyridin-3-yl)pyrimidin-2-amine]
> 70%: CDK-2/cyclin A; [1] | CDK-2/cyclin A; [2] | CDK-9/Cyclin T1; [3] | CDK-9/Cyclin T1; [4]

FC(F)(F)Oc1ccc(-c2cnc3[nH]cc(-c4ccnc(NCCc5ccccc5)n4)c3c2)cc1 [1B3, N-phenethyl-4-(5-(4-(trifluoromethoxy)phenyl)-1H-pyrrolo[2,3-b]pyridin-3-yl)pyrimidin-2-amine]
> 50%: CDK-2/cyclin A; [5] | CDK-2/cyclin A; [2] | CDK-9/Cyclin T1; [6] | CDK-9/Cyclin T1; [4]

c1ccc2sc(-c3cnc4[nH]cc(-c5ccnc(NC6CCCCCC6)n5)c4c3)cc2c1 [1A58, 4-(5-(benzo[b]thiophen-2-yl)-1H-pyrrolo[2,3-b]pyridin-3-yl)-N-cycloheptylpyrimidin-2-amine]
> 70%: CDK-2/cyclin A; [5] | CDK-2/cyclin A; [2] | CDK-9/Cyclin T1; [6] | CDK-9/Cyclin T1; [4]

FC(F)(F)c1cccc(-c2cnc3[nH]cc(-c4ccnc(NC5CCCCCC5)n4)c3c2)c1 [1A44, N-cycloheptyl-4-(5-(3-(trifluoromethyl)phenyl)-1H-pyrrolo[2,3-b]pyridin-3-yl)pyrimidin-2-amine]
> 70%: CDK-2/cyclin A; [1]
> 50%: CDK-9/Cyclin T1; [3]

CSc1ccccc1-c1cnc2[nH]cc(-c3ccnc(NCCc4ccccc4)n3)c2c1 [1B9, 4-(5-(2-(methylthio)phenyl)-1H-pyrrolo[2,3-b]pyridin-3-yl)-N-phenethylpyrimidin-2-amine]
> 50%: CDK-2/cyclin A; [5] | CDK-2/cyclin A; [2] | CDK-9/Cyclin T1; [6] | CDK-9/Cyclin T1; [4]

O=Cc1ccc(-c2cnc3[nH]cc(-c4ccnc(NC5CC5)n4)c3c2)cc1 [1A13, 4-(3-(2-(cyclopropylamino)pyrimidin-4-yl)-1H-pyrrolo[2,3-b]pyridin-5-yl)benzaldehyde]
> 70%: CDK-2/cyclin A; [1] | CDK-2/cyclin A; [2] | CDK-9/Cyclin T1; [3] | CDK-9/Cyclin T1; [4]

c1ccc2[nH]c(-c3cnc4[nH]cc(-c5ccnc(NC6CCCCCC6)n5)c4c3)cc2c1 [1A59, 4-(5-(1H-indol-2-yl)-1H-pyrrolo[2,3-b]pyridin-3-yl)-N-cycloheptylpyrimidin-2-amine]
> 70%: CDK-2/cyclin A; [5] | CDK-2/cyclin A; [2] | CDK-9/Cyclin T1; [6] | CDK-9/Cyclin T1; [4]

FC(F)(F)c1ccc(-c2cnc3[nH]cc(-c4ccnc(NC5CC5)n4)c3c2)cc1 [1A1, N-cyclopropyl-4-(5-(4-(trifluoromethyl)phenyl)-1H-pyrrolo[2,3-b]pyridin-3-yl)pyrimidin-2-amine]
< 50%: CDK-2/cyclin A; [1] | CDK-9/Cyclin T1; [3]

c1cncc(-c2cnc3[nH]cc(-c4ccnc(NC5CCCC5)n4)c3c2)c1 [1A35, N-cyclopentyl-4-(5-(pyridin-3-yl)-1H-pyrrolo[2,3-b]pyridin-3-yl)pyrimidin-2-amine]
> 50%: CDK-2/cyclin A; [1] | CDK-2/cyclin A; [2] | CDK-9/Cyclin T1; [3] | CDK-9/Cyclin T1; [4]

CSc1ccc(-c2cnc3[nH]cc(-c4ccnc(NC5CCCCCC5)n4)c3c2)cc1 [1A48, N-cycloheptyl-4-(5-(4-(methylthio)phenyl)-1H-pyrrolo[2,3-b]pyridin-3-yl)pyrimidin-2-amine]
> 50%: CDK-2/cyclin A; [1] | CDK-2/cyclin A; [2] | CDK-9/Cyclin T1; [3] | CDK-9/Cyclin T1; [4]

COc1ccc2[nH]c(-c3cnc4[nH]cc(-c5ccnc(NC6CC6)n5)c4c3)cc2c1 [1A17, N-cyclopropyl-4-(5-(5-methoxy-1H-indol-2-yl)-1H-pyrrolo[2,3-b]pyridin-3-yl)pyrimidin-2-amine]
> 50%: CDK-2/cyclin A; [1] | CDK-2/cyclin A; [2] | CDK-9/Cyclin T1; [3] | CDK-9/Cyclin T1; [4]

CCc1ccccc1-c1cnc2[nH]cc(-c3ccnc(NC4CCCC4)n3)c2c1 [1A30, N-cyclopentyl-4-(5-(2-ethylphenyl)-1H-pyrrolo[2,3-b]pyridin-3-yl)pyrimidin-2-amine]
> 50%: CDK-2/cyclin A; [1] | CDK-2/cyclin A; [2] | CDK-9/Cyclin T1; [3] | CDK-9/Cyclin T1; [4]

c1ccc2c(-c3cnc4[nH]cc(-c5ccnc(NC6CC6)n5)c4c3)nccc2c1 [1A20, N-cyclopropyl-4-(5-(isoquinolin-1-yl)-1H-pyrrolo[2,3-b]pyridin-3-yl)pyrimidin-2-amine]
> 50%: CDK-2/cyclin A; [1] | CDK-2/cyclin A; [2] | CDK-9/Cyclin T1; [4]
< 50%: CDK-9/Cyclin T1; [3]

Cc1ccc(-c2cnc3[nH]cc(-c4ccnc(NC5CCCC5)n4)c3c2)cc1 [1A26, N-cyclopentyl-4-(5-(p-tolyl)-1H-pyrrolo[2,3-b]pyridin-3-yl)pyrimidin-2-amine]
> 50%: CDK-2/cyclin A; [1] | CDK-2/cyclin A; [2] | CDK-9/Cyclin T1; [3] | CDK-9/Cyclin T1; [4]

COc1ccc2[nH]c(-c3cnc4[nH]cc(-c5ccnc(NCCc6ccccc6)n5)c4c3)cc2c1 [1B17, 4-(5-(5-methoxy-1H-indol-2-yl)-1H-pyrrolo[2,3-b]pyridin-3-yl)-N-phenethylpyrimidin-2-amine]
> 50%: CDK-2/cyclin A; [5] | CDK-2/cyclin A; [2] | CDK-9/Cyclin T1; [6] | CDK-9/Cyclin T1; [4]

COc1ccc2[nH]c(-c3cnc4[nH]cc(-c5ccnc(NC6CCCC6)n5)c4c3)cc2c1 [1A37, N-cyclopentyl-4-(5-(5-methoxy-1H-indol-2-yl)-1H-pyrrolo[2,3-b]pyridin-3-yl)pyrimidin-2-amine]
> 70%: CDK-2/cyclin A; [1] | CDK-9/Cyclin T1; [3]

FC(F)(F)Oc1ccc(-c2cnc3[nH]cc(-c4ccnc(NC5CCCCCC5)n4)c3c2)cc1 [1A43, N-cycloheptyl-4-(5-(4-(trifluoromethoxy)phenyl)-1H-pyrrolo[2,3-b]pyridin-3-yl)pyrimidin-2-amine]
> 50%: CDK-2/cyclin A; [1] | CDK-2/cyclin A; [2] | CDK-9/Cyclin T1; [3] | CDK-9/Cyclin T1; [4]

CSc1ccc(-c2cnc3[nH]cc(-c4ccnc(NC5CCCC5)n4)c3c2)cc1 [1A28, N-cyclopentyl-4-(5-(4-(methylthio)phenyl)-1H-pyrrolo[2,3-b]pyridin-3-yl)pyrimidin-2-amine]
> 50%: CDK-2/cyclin A; [1] | CDK-2/cyclin A; [2] | CDK-9/Cyclin T1; [3] | CDK-9/Cyclin T1; [4]
